Data set [1] concerns demineralized bone matrix particles. In words: Bone differentiation of AGE-modified demineralized bone matrix implanted in rats. It counts as in vivo, rat. Here is the method: In order to assess the possible role of hyperglycemia-induced matrix modifications in this process, demineralized bone matrix particles from 35 week old normal Long-Evans rats were prepared. Matrix is incubated in phosphate buffered saline alone (PBS), PBS containing various sugar precursors of AGE (PBS−G), and PBS with sugars plus the AGE-inhibitor aminoguanidine (PBS−G+AG). After incubation, the matrix is washed and implanted subcutaneously in normal rats. Twelve days after implantation, ^45CaCl2 is injected to determine implant mineralization, and alkaline phosphatase activity is measured to assess osteoblast function. Duplicate specimens are fixed, embedded and stained for histologic evaluation.

The test system of a further data set is kidney. As to conditions: in vivo; cited from earlier work.
Another data set deals with bovine serum albumin. In words: Formation of fluorescent advanced glycosylation end products in albumin incubated with glucose. It counts as biochemical. The settings on record: 200 mM agent, 6 mg/mL BSA, 200 mM glucose, 37° C., two-week incubation, vs control. As to the method:
To measure the ability of certain of the agents of the present invention to inhibit the production of advanced glycosylated end products in vitro, albumin and glucose were incubated together for two weeks in the presence of several test agents. Samples were taken at regular intervals for analysis. Advanced glycosylation end products were measured as appearance of fluorescent compounds, and early glycosylation products were measured by incorporation of radiolabeled glucose into albumin. Reaction conditions were as follows. […]
After the incubation periods, samples were treated as follows. After dialysis to remove all unbound glucose, the amount of protein present was measured with a standard dye-binding assay. The amount of glucose which became bound to the albumin, a measure of early glycosylation products, was determined by precipitating albumin with trichloroacetic acid and measuring the radioactivity of the bound glucose using scintillation counting.
The results of this experiment are expressed graphically in FIG. 1. For each sample, incorporation of radiolabeled glucose is indicated by the solid portion of the bar, and fluorescence is indicated in the open portion of the bar. All values are expressed as per milligram of albumin. […]

The next data set has as its system Laminin B1 mRNA. As to conditions: diabetic rats; cited from earlier work.
A short description of data set [2]: Irritation on intraperitoneal injection, salt compared with free base. The data set is classed as in vivo.
In data set [3] the test system is normal and diabetic rats. In words: Aorta collagen solubility (acetic acid, CNBr, pepsin). The data set is classed as in vivo, rat. The settings on record: 25 mg/kg daily i.p., 16 weeks. Here is the method: (§1) The experiment consisted of giving both normal and diabetic rats daily intraperitoneal doses of the agent aminoguanidine hydrochloride at a dose of 25 mg per kilogram of body weight, for a period of 16 weeks. […] Diabetes was induced prior to drug therapy with a single dose of streptozotocin. Control animals, both diabetic and normal, received no drug.
Aorta samples from the same groups of animals described in Example IV above were subjected to analysis for Advanced Glycosylation Endproducts (A.G.E.) content and solubility.
Aortas were finely minced with dissecting scissors, delipidated with 5 mL of chloroform: methanol (2:1), washed 5 times with buffer, and divided into aliquots for the following assessments of cross-linking:
(B) Solubility in 0.5M acetic acid was determined after 2 hours of extraction at 25° C. and 24 hours at 4° C.
(C) Solubility after cyanogen bromide cleavage at 30° C. for 18 hours was determined.
(D) Solubility after degradation by pepsin (1.0 mg/mL) in 0.1 M acetate buffer, pH 4.1, at 37° C. for 48 hours.
After treatment for the prescribed period, soluble material was separated from insoluble material by centrifugation (50,000× g, 1 hour), and all fractions were lyophilized and hydrolyzed in 6M HCl for determination of total hydroxyproline.

Data set [4] deals with calf skin collagen. The experiment in a line: Calf skin collagen crosslinking by glucose: cyanogen bromide fragments on SDS-polyacrylamide gel. It counts as biochemical. The settings on record: 140 mM glucose, 200 mM aminoguanidine, 3 weeks, 35° C.; Lane B. As to the method:
(§2) Collagen from samples of calf skin were extracted into acetic acid and then precipitated with 0.6 M sodium chloride. These procedures removed from the solution skin collagen that was already permanently crosslinked or denatured. Native collagen fibrils were reformed by dialysis against 0.02M phosphate buffer, and these were incubated for 3 weeks at 35° C. in the presence of 140 mM glucose and with or without 200 mM aminoguanidine. After incubation, the samples were dialyzed and the degree of crosslinking was determined by two methods. First, the amount of reacted collagen which could be solubilized by treatment in 2% sodium dodecyl sulfate at 100° C. was measured.
The reacted collagen was further examined by cleaving it into fragments using cyanogen bromide treatment in formic acid, the resulting protein fragments were separated by size by sodium dodecyl sulfate-polyacrylamide gel electrophoresis. After electrophoresis, the protein fragments were identified in the gel using silver staining.
Referring to FIG. 3B, Lane C contains collagen that was incubated with glucose alone. It is noted that a large amount of high molecular weight fragments form a continuous band at the top of the gel, indicating a large range of high molecular weight fragments. Some of this material could not enter the gel and is present in the […] stacking gel above the gradient gel. […]

In a further data set the test system is diabetic rats. As to conditions: cited from earlier work.
Data set [5] deals with calf skin collagen. The experiment in a line: Calf skin collagen crosslinking by glucose: solubilization in 2% sodium dodecyl sulfate. The data set is classed as biochemical. As to conditions: 140 mM glucose, 200 mM aminoguanidine, 3 weeks, 35° C. Here is the method: As a further evaluation of the compound aminoguanidine as a model for the prevention of protein trapping, crosslinking and formation of advanced glycosylation end products, the following experiment using calf skin collagen was performed. Collagen is a protein in the skin responsible for the suppleness of skin, and crosslinking leads to wrinkling, decreased elasticity, reduced susceptibility to proteolytic degradation, and other changes.
as §2

Data set [6] concerns normal and diabetic rats. In words: Cross-linking of lipoprotein to aorta collagen, ELISA for apolipoprotein-B. It counts as in vivo, rat. The settings on record: 25 mg/kg daily i.p., 16 weeks. As to the method: as §1
Aorta samples from the same group of animals described in Example IV above, were subjected to analysis for cross-linking of lipoprotein to collagen, using an enzyme immunoassay. A standard ELISA procedure was employed, using antiserum to rat apoliproprotein-B raised in rabbits, peroxidase-labeled anti-rabbit antibody, and standard chromogenic reagents to detect quantity of antibody bound.

Consider 1 compound from patent publication US20020115724A1, “Methods and agents for inhibiting protein aging” (priority 1985, published 2002).

Structures can show the parent of a compound that is named as a salt.

Consider `N=C(N)NN` [aminoguanidine hydrochloride], for which the bone differentiation in data set [1] (matrix incubated with AGE precursor plus aminoguanidine, implanted subcutaneously, 12 days) is recorded as 80 % of control. In data set [1] (simultaneous incubation of matrix with AGE precursor and aminoguanidine), the “matrix AGE content (specific fluorescence)” value is given as “reduced fluorescence to normal”. For the same compound, the “immunoglobulin trapping in the kidney” value in the data set with kidney was “reduction of immunoglobulin trapping in the kidney”. Further, the “formation of fluorescent compounds (advanced glycosylation end products)” value in the data set on bovine serum albumin was “dramatically reduced by as much as eightfold”. Besides, in the data set on Laminin B1 mRNA, the “diabetes-induced increase in laminin mRNA in the kidney” value is listed as “prevents the diabetes-induced increase in laminin MRNA in the kidney”. Further, the “irritation compared with the parent free base” value in data set [2] was “less irritating”. Besides, the “Percent collagen solubilized by 0.5 M acetic acid” value stood at 12.6 ± 0.3% in the data set with normal and diabetic rats [3] (diabetic rats); 18.7 ± 0.3% with normal and diabetic rats [3] (normal rats). For the same compound, the “Percent collagen solubilized by CNBr” value in the data set on normal and diabetic rats [3] (diabetic rats) came out at 10.6 ± 0.1%; in the data set with normal and diabetic rats [3] (normal rats) it was 13.6 ± 0.3%. Besides, the “Percent collagen solubilized by Pepsin” value amounted to 46.1 ± 0.4% in the data set on normal and diabetic rats [3] (diabetic rats); 52.5 ± 0.2% in the data set on normal and diabetic rats [3] (normal rats). Moreover, in the data set with calf skin collagen [4], the “high molecular weight fragments after cyanogen bromide cleavage (gel)” value was “no large amount of high molecular weight material”. The “increased cross-linking of collagen (tendon fiber breaking time in urea bath, mechanical strength)” value with diabetic rats is on record as “prevented”. Moreover, the “solubility of reacted collagen in 2% sodium dodecyl sulfate at 100° C.” value in the data set with calf skin collagen [5] is listed as “as soluble as collagen incubated in buffer alone”. The “LIPOPROTEIN BOUND PER MG COLLAGEN” value in the data set with normal and diabetic rats [6] (diabetic rats) came out at 0.64; in the data set with normal and diabetic rats [6] (normal rats), 0.53.
